Tests used:
[1] = target: T1, Muscarine M4 (GPCR-A-MA-ACH M4) (Homo sapiens, UniProt P08173); settings: read-out: Ligand Kd; cited from earlier work
T1 construct: expressed in transfected cells; host or cells: CHO cells
T1 sequence (P08173 1-479): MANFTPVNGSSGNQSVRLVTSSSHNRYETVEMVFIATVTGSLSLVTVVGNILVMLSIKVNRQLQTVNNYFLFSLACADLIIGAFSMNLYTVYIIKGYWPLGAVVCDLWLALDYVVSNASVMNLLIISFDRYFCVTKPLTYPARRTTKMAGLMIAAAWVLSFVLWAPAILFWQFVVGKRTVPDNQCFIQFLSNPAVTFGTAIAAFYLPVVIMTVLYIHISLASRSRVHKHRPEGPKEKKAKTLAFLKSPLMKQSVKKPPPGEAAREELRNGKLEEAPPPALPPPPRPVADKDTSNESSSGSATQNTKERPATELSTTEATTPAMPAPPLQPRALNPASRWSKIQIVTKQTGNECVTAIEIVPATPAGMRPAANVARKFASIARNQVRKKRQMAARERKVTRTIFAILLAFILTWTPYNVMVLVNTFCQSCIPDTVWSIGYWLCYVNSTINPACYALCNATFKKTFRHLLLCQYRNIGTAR

[2] = target: T2, Muscarine M2 (GPCR-A-MA-ACH M2) (Homo sapiens, UniProt P08172); settings: read-out: Ligand Kd; cited from earlier work
T2 construct: expressed in transfected cells; host or cells: CHO cells
T2 sequence (P08172 1-466): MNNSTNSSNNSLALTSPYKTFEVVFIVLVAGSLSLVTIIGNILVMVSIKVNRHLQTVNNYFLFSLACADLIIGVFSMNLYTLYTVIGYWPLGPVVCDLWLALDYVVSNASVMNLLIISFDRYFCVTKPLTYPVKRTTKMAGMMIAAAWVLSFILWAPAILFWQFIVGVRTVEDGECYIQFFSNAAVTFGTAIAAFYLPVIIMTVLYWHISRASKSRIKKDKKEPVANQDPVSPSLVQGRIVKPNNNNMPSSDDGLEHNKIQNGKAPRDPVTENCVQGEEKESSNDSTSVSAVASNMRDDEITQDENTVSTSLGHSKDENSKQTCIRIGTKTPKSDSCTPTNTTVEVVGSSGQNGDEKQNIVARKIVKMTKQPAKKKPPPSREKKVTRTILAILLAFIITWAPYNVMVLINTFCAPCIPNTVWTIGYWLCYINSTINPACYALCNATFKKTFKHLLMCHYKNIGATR

[3] = target: T3, Muscarine M3 (GPCR-A-MA-ACH M3) (Cavia porcellus, UniProt H0W1Z3); assay: Muscarine M3 functional assay, isolated organ (ileum), agonist and antagonist mode; design: species or system Guinea Pig
T3 construct: from tissue; host or cells: guinea pig ileum

[4] = test system: Muscarine M1 (GPCR-A-MA-ACH M1); assay: Muscarine M1 functional assay, isolated organ (vas deferens, field-stimulated); settings: assay characteristic; Muscarine M1, rabbit vas deferens, inhibition of twitch contraction; read-out: Reference Agonist Ligand EC50
Method: Compounds were dissolved in DMSO (10 mM) and diluted in assay buffer to test concentration. Prime testing was at 1 μM; for actives in antagonist mode (PI, percent inhibition with respect to reference agonist and blank>30%) as well as actives in agonist mode (PS, percent stimulation with respect to reference agonist and blank>30%) testing was continued at lower concentrations in 10-fold dilutions: 0.1 μM, 0.01 μM, etc.
The tissues were exposed to a maximal concentration of the respective reference agonist to verify responsiveness and to obtain a control response. Following extensive washings and recovery of the initial state, the tissues were exposed to the test compounds or the same agonist. […]
The parameters measured were the maximum change in the amplitude of the electrically-evoked contractions (M1 and M2 receptor assays) or in tension (M3 receptor assay) induced by each compound concentration. The results are expressed as a percent of the control agonist-induced response. The EC50 values of the reference agonists (concentration producing a half-maximum response) and IC50 values of the reference antagonists (concentration producing a half-maximum inhibition of the agonist-induced response) were calculated by […] analysis of their concentration-response curves.

T3 sequence (H0W1Z3 1-590): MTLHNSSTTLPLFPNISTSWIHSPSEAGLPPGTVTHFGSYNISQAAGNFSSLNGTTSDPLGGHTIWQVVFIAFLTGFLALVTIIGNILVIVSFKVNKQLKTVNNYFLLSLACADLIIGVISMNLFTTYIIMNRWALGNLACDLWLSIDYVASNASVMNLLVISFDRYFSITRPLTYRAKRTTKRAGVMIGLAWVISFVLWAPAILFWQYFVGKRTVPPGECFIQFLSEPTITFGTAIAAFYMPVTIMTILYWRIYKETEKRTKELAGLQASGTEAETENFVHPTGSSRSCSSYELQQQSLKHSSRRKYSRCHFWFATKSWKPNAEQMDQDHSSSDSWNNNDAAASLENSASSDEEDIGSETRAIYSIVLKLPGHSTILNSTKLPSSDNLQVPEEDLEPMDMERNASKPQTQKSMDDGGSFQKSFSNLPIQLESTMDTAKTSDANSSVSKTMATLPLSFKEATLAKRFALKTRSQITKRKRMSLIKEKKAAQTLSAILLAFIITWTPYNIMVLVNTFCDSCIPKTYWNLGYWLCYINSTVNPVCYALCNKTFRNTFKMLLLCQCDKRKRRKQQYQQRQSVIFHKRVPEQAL

3H-Oxotremorine
Kd [1]: 4.5 nM

CCCN(CCC)CC1CCCCN1CCNC(=O)N1c2ccccc2C(=O)Nc2cccnc21 (stereo not shown) [Compound 3H-AFDX384, 3H-AFDX384]
Kd [2]: 4.3 nM

C[N+](C)(C)CC#CCOC(=O)Nc1cccc(Cl)c1.[Cl-] [McN-A-343, reference compound]
Cell funct. Musc. M3 Agonism pEC50 [3]: 6.9 | EC50 [4]: 250 nM
